In patent US11752162B2, “Compounds and compositions for treating solid tumors by intratumoral administration” (Novartis AG, priority 2017, dated 2023):

Columns and labels:
[1] = Pharmacokinetics and mass balance of aluminum and Compound 15 in male Wistar rats (Example 12); type: in vivo, rat; settings: single i.v. dose equivalent to 0.2 mg of aluminum per animal
Description: The pharmacokinetics and mass balance of aluminum and Compound 15 were investigated following a single subcutaneous (s.c.) dose (1 mL) of Suspension H (Compound 15/Alhydrogel® at a 2:1 ratio of aluminum to Compound 15) in male Wistar rats. In addition, the pharmacokinetics of aluminum were investigated following a single intravenous (i.v.) dose (0.5 mL) of 0.4 mg/mL AlCl3.6H2O (equivalent to 0.2 mg of aluminum) in male Wistar rat. Additionally, a control group dosed subcutaneously with saline were evaluated for environmental background aluminum levels.
Metal free/trace metal grade containers/tubes/tips (<1 ng/g Al) were used for sample handling. Aluminum content was analyzed in serum and urine (Frontage Laboratories).
Approximately 0.3 to 0.5 mL of blood samples were collected from carotid artery cannulation at 0 (pre dose), 0.083 (IV only), 0.25 (IV only), 0.5, 3, 6, 24, 72, 168, 336, 504, 672 hours post dose.
Urine was collected from each animal for the following periods: 0 (24 h before dose), 0-24, 24-48, 48-72, 72-96, 96-168 hours post dose, then weekly up to 672 h. The urine samples were stored at −20° C. until analyzed. Feces were collected from each animal and samples were pooled per subject at the end of study at 672 h.
Compound 15 and aluminum levels were analyzed in the serum and urine samples obtained from the s.c. group whereas only aluminum levels were analyzed in the i.v. group.

[2] = Adsorption of compounds to aluminum hydroxide in histidine buffer (pH 6.8); type: physicochemical; settings: histidine buffer pH 6.8, 0.1 mg/mL compound, 37° C. 5 hours
Description: The resulting solution was diluted 10-fold with blank histidine buffer to a final compound concentration of 0.1 mg/mL. Diluted solutions were incubated at 37° C. for 5 hours. The samples were centrifuged at 14,000 rpm for 10 minutes to pellet the insoluble. The supernatant (along with an internal standard) was then evaluated by LC-MS/MS using a ballistic gradient (from 5% CH3CN-0.5% formic acid to 95% CH3CN-1.0% formic acid in 3.5 minutes) on a Waters Atlantis dC18 (50 mm×2.1 mm) column at room temperature against a calibration curve prepared at known compound concentrations ranging from 0.005 to 50 μM. The concentration in the supernatant was calculated as % unbound to aluminum hydroxide compared to control; the % bound to aluminum hydroxide was calculated as 100% minus % unbound.

MC38 tumors = experiment: Contralateral MC38 colon cancer model, alone or with checkpoint inhibitors; type: in vivo, mouse; settings: single agents; Compound 15 50 μg i.t. weekly x2, antibodies 10 mg/kg i.p. twice weekly
Description: MC38 cells were grown in sterile conditions in a 37° C. incubator with 5% CO2 for two weeks. The cells were cultured in Dulbecco's Modified Eagle's medium (DMEM) media supplemented with 10% FBS, cells were passed every 2-3 days. On the day of injection, cells were harvested (Passage 12) and re-suspended in Hanks' Balanced Salt Solution (HBSS) at a concentration of 2.5×10^6/ml. Cells were Radil tested for mycoplasma and murine viruses.
For each mouse, 0.25×10^6 cells were implanted with subcutaneously injection into right flank using a 28½ g needle ([…]). After the first implantation on day 3 (0.25×10^6) cells are implanted with a subcutaneous injection into left flank using a 28½ g needle (100 μL injection volume). Tumor sizes were assessed three times a week once tumors were palpable. Tumor sizes were determined by using caliper measurements, with tumor volumes calculated using the formula: (Length×Width×Width)/2.
Female C57BL/6 mice bearing the MC38 tumors were randomized into 7 groups (n=9 mice per group) 9 days post tumor cell implantation with an average tumor volume range of 69.09-142.25 mm^3, and the separate groups of tumor bearing mice received treatment as shown in Table 17.
The anti-tumor efficacy of Compound 15 adsorbed to aluminum hydroxide (Alhydrogel®) alone or in combination with checkpoint inhibitors, was determined using a contralateral MC38 colon cancer model. The tumor volume was obtained after two weekly intratumoral injections of Compound 15 adsorbed to aluminum hydroxide (50 μg each) either alone (Group 2), in a double combination with intraperitoneal injection (twice weekly) of an anti-PD-L1 antibody (10 mg/kg) (Group 5), in a double combination with intraperitoneal injection (twice weekly) of an anti-CTLA4 antibody (10 mg/kg) (Group 6), or in a triple combination with intraperitoneal injection (twice weekly) of an anti-PD-L1 antibody (10 mg/kg) and with intraperitoneal injection of an anti-CTLA4 antibody (10 mg/kg) (group 7). For comparison, data was obtained after an intraperitoneal injection (twice weekly) of the anti-PD-L1 antibody (10 mg/kg) alone (Group 3) and after an intraperitoneal injection (twice weekly) of the anti-CTLA4 antibody (10 mg/kg) alone (Group 4). The untreated control data was also obtained (Group 1).
The anti-tumor efficacy of Compound 15 alone (without aluminum hydroxide (Alhydrogel®)) or in combination with checkpoint inhibitors was determined using a contralateral MC38 colon cancer model. […] In addition, the anti-tumor efficacy of Compound 15 adsorbed to aluminum hydroxide (Alhydrogel®) alone or in a triple combination with checkpoint inhibitors was determined using a contralateral MC38 colon cancer model. […]

[3] = test system: MC38 syngeneic colon cancer tumor model; experiment: MC38 syngeneic colon cancer tumor model, tumor volume at injection site and distant site; type: in vivo, mice; settings: One-Way ANOVA post hoc Tukey, difference from no treatment
Excerpt: FIG. 10: A) Efficacy at the intratumor injection site following administration of Compound 15/aluminum hydroxide, an anti-PDL1 antibody or an anti-CTLA4 antibody as single agents or after the administration of combinations of Compound 15/aluminum hydroxide and an anti-PDL1 antibody and/or an anti-CTLA4 antibody.
The effect on tumor volume by administration of a compound of Formula (A), in the presence of aluminum-containing particles, with and without the administration of one or more checkpoint inhibitors is shown in Example 14.
Percent treatment/control (T/C) values for tumor were calculated using the following formula: % T/C=100×ΔT/ΔC if ΔT>0% % Regression=100×ΔT/Tinitial if ΔT<0 where: • T=mean tumor volume of the drug-treated group on the final day of the study; • ΔT=mean tumor volume of the drug-treated group on the final day of the study minus mean tumor volume of the drug-treated group on initial day of dosing; • Tinitial=mean tumor volume of the drug-treated group on initial day of dosing; • C=mean tumor volume of the control group on the final day of the study; • ΔC=mean tumor volume of the control group on the final day of the study minus mean tumor volume of the control group on initial day of dosing. All data were expressed as mean±standard error of the mean (SEM). Delta tumor volume

## O.O.O.O.O.O.[Al+3].[Cl-].[Cl-].[Cl-] [AlCl3.6H2O]
[1]
  AUClast of aluminum: 67400 ng·h/mL
  mean Cmax of aluminum in serum: 26000 ng/mL
  mean Tmax of aluminum: 13.2 min
  mean recovery of aluminum in urine: ~0.2 mg

## Cc1ccc2c(c1)nc(N)c1ncc(CCc3ccc(OCCOCCOCCC(F)(F)P(=O)(O)O)cc3C)cc12 [Compound 1, (3-(2-(2-(4-(2-(5-amino-8-methylbenzo[f][1,7]naphthyridin-2-yl)ethyl)-3-methylphenoxy)ethoxy)ethoxy)-1,1-difluoropropyl)phosphonic acid]
[2]
  % Bound: 98.2%

## Cc1cc(OCCCC(F)(F)P(=O)(O)O)ccc1CCc1cnc2c(N)nc3cc(CCC(=O)O)ccc3c2c1 [Compound 17, 3-(5-amino-2-(4-(4,4-difluoro-4-phosphonobutoxy)-2-methylphenethyl)benzo[f][1,7]naphthyridin-8-yl)propanoic acid]
[2]
  % Bound: 94.5%

## Cc1cc(OCCOCCOCCC(F)(F)P(=O)(O)O)ccc1CCc1cnc2c(N)nc3cc(CCC(=O)O)ccc3c2c1 [Compound 18, 3-(5-amino-2-(4-(2-(2-(3,3-difluoro-3-phosphonopropoxy)ethoxy)ethoxy)-2-methylphenethyl)benzo[f][1,7]naphthyridin-8-yl)propanoic acid]
[2]
  % Bound: 96.2%

## Cc1cc(OCCOCCOCCP(=O)(O)O)ccc1CCc1cnc2c(N)nc3cc(CCC(=O)O)ccc3c2c1 [Compound 20, 3-(5-amino-2-(2-methyl-4-(2-(2-(2-phosphonoethoxy)ethoxy)ethoxy)phenethyl)benzo[f][1,7]naphthyridin-8-yl)propanoic acid]
[2]
  % Bound: 97.0%

B1: anti-PD-L1: Anti-PD-L1 antibody BAP058-hum13 with heavy chain variable domain of SEQ ID NO:7 and light chain variable domain of SEQ ID NO:17 (antibody, V domains shown)
VH: EVQLVQSGAEVKKPGATVKISCKVSGYTFTSYWMYWVRQARGQRLEWIGRIDPNSGSTKYNEKFKNRFTISRDNSKNTLYLQMNSLRAEDTAVYYCARDYRKGLYAMDYWGQGTTVTVSS
VL: AIQLTQSPSSLSASVGDRVTITCKASQDVGTAVAWYLQKPGQSPQLLIYWASTRHTGVPSRFSGSGSGTDFTFTISSLEAEDAATYYCQQYNSYPLTFGQGTKVEIK
MC38 tumors
  % T/C at the contralateral tumor site: 27.02%
  % T/C at the primary injection site: 56.22%

B2: Anti PD-L1: anti-PDL1 antibody, inhibitor of the PD-L1 ligand, used as single agent or combination partner (antibody, V domains shown)
VH: EVQLVQSGAEVKKPGATVKISCKVSGYTFTSYWMYWVRQARGQRLEWIGRIDPNSGSTKYNEKFKNRFTISRDNSKNTLYLQMNSLRAEDTAVYYCARDYRKGLYAMDYWGQGTTVTVSS
VL: AIQLTQSPSSLSASVGDRVTITCKASQDVGTAVAWYLQKPGQSPQLLIYWASTRHTGVPSRFSGSGSGTDFTFTISSLEAEDAATYYCQQYNSYPLTFGQGTKVEIK
[3]; post implant day 19, N=9 per group
  Efficacy at a site distant from the injection site (distant site tumor): significantly different
[3]; post implant day 22, N=9 per group
  Efficacy at the intratumor injection site (treated site tumor): significantly different
